# Measured values from patent publication US12152060B2, “Interleukin-2 variants and methods of uses thereof” (Cugene Inc, priority 2018, dated 2024).
# Legend:
# [1] = test system: STAT5 phosphorylation in CD4+/Foxp3+/CD25+ Treg, CD4+/Foxp3-/CD25+ CD4 effector and CD4+/Foxp3-/CD25- CD4 naive T cell subsets; test: STAT5 phosphorylation in three CD4+ T cell subsets, human PBMC; assay type: cell-based; details: FIG. 9
# Method: After human PBMC Cells were treated with serial dilutions of test compounds, fixed and permeabilized, washed, and stained with a mixture of anti-CD25-PE, anti-FOXP3-APC, anti-pSTAT5-FITC, and anti-CD4-PerCP-Cy5.5 antibodies, the flow cytometry analysis was gated into CD4+/Foxp3+/CD25+, CD4+/Foxp3−/CD25+, CD4+/Foxp3−/CD25− groups for the Treg, CD4 effector, and CD4 naive T cell subsets, respectively. Data are expressed as a percent of pSTAT5 positive cells in gated population and illustrated in FIG. 9.
# [2] = test system: Treg cells, CD4+ Tconv, CD8 T and NK cells in blood; test: Dose-response pharmacodynamics study in mice following a single injection; assay type: in vivo, mouse
# Method: Following a single subcutaneous administration of vehicle (PBS) or P-0511 (1, 0.3, 0.1, or 0.03 mg/kg) to female Balb/C mice (n=5/group), peripheral blood was collected on day-2 as baseline, and post dose on days 3, 5, and 7. On day 7, mice were sacrificed, and spleens were harvested. Blood lymphocyte phenotyping, proliferation and expansion were measured by flow cytometry at each timepoint using fresh whole blood.
# [3] = test system: delayed-type hypersensitivity (DTH) mouse model; test: KLH-induced delayed-type hypersensitivity (DTH) mouse model, ear thickness; assay type: in vivo; details: for inhibition of ear inflammation (KLH-induced DTH), separate study: Q5D
# Method: The ability of Treg cells induced by IL-2 variants to suppress T cell antigen-driven inflammation in vivo was assessed in a model of delayed-type hypersensitivity (DTH). Female Balb/C mice (7-week old) were acclimated in house for 7 days and randomized into groups. Subcutaneous administration of vehicle (PBS), P-0511 at either 0.1 mg/kg or 0.3 mg/kg was initiated on day-2 and was given either once every 3 days (Q3D) for three injections or once every 5 days (Q5D) for two injections. Mice were then sensitized with a subcutaneous administration of 100 μg keyhole limpet hemocyanin (KLH) in 200 μl saline on day 0. For Q3D dosing, two more subcutaneous injections of PBS or P-0511 (0.1 or 0.3 mg/kg) were administered on days 1 and 4; for Q5D dosing, one additional s.c. injection of PBS, 0.1 or 0.3 mg/kg P-0511 was administered on day 3. Mice received an intradermal challenge of KLH (5 μg in 10 μl saline) in right ear on day 5. Right ear thickness was measured using a caliper on day 5 prior KLH challenge and daily from day 6 to day 8 corresponding to 24 h, 48h, and 72 h post KLH challenge. One group of mice also received 5 mg/kg daily i.p. treatment of dexamethasone from day 5 to day 8 as a positive control.
# Kinetics of the DTH response using the change in ear thickness relative to baseline values (Δ ear thickness) at various times after KLH challenge was illustrated in FIG. 23.
# In a separate study, dose-dependent response of P-0511 (0.1, 0.3 and 1 mg/kg, Q5D) on suppression of KLH-induced DTH was determined and compared with Benchmark-1 (0.3 mg/kg, Q5D).
substance,measurement,setting,value
P-0511: Fc fusion protein of IL-2 variant L19H/S125I/Q126E; SEQ ID NO: 198,"pSTAT5 potency and selectivity in Treg, Teff and naive CD4 T cell subsets (in words)",[1],preferential activation of Treg over Teff
same,"pSTAT5 potency and selectivity in Treg, Teff and naive CD4 T cell subsets (in words)",[1]; listed as P-511,superior to both Benchmark-2 and -3
same,"Treg/Tconv ratio, peak (based on cell count)",[2]; 0.1 mg/kg single dose,0.06
same,"Treg/Tconv ratio, peak (based on cell count)",[2]; 0.3 mg/kg single dose,0.18
same,"Treg/Tconv ratio, peak (based on cell count)",[2]; 1 mg/kg single dose,0.27
same,"percentages of CD4+ Tconv, CD8 Teff or NK cells over the total lymphocytes",[2]; 0.03-1 mg/kg single dose,no statistically significant changes
same,suppression of antigen-driven inflammation (Δ ear thickness),"[3]; 0.1 mg/kg s.c., Q3D and Q5D",did not reach statistical significance
same,"inhibition of ear inflammation (KLH-induced DTH), separate study",[3]; 0.1 mg/kg,mild
same,suppression of antigen-driven inflammation (Δ ear thickness),"[3]; 0.3 mg/kg s.c., Q3D or Q5D, all time points post KLH challenge",evident
same,"inhibition of ear inflammation (KLH-induced DTH), separate study",[3]; 0.3 mg/kg,Intermediate
same,"inhibition of ear inflammation (KLH-induced DTH), separate study",[3]; 1 mg/kg,strong resistance to KLH-induced DTH
